From ChEMBL document CHEMBL1121460, “Some spiro analogues of the potent analgesic ketobemidone” (J Med Chem, 1980) come the findings set out here.

For data set [1], the species on record is Mus musculus. Kind of data set: Evaluated for activity in Nilsen test.
Data set [2] is filed under the species Mus musculus. Kind of data set: Evaluated for analgesic activity in mice using hot plate method. The data set is classed as functional.
Data set [3] is filed under the species Mus musculus. Kind of data set: Evaluated for analgesic activity in mice using Nilsen test. The data set is classed as functional.
The target of a further data set is Opioid receptor (Rattus norvegicus, UniProt P33533+P34975+P33535). The data set is described as follows: Tested for Opioid receptors affinity determined by the capacity to displace bound, radiolabeled dihydromorphine from rat brain homogenates.
The test system of data set [4] is Monkey. The data set is described as follows: Evaluated for depressant effects in photocell activity cages at 60 mg/kg; IA is Inactive. The data set is classed as functional, organism-based. Also on record: dose 60 mg/kg. As to conditions: Cercopithecidae.
Data set [5] can be described thus: Lethal dose in monkeys. The data set is classed as toxicity, organism-based. As to conditions: cercopithecidae, in vivo.
For data set [6], the system named is Monkey. The data set is described as follows: Evaluated for depressant effects in photocell activity cages at 10 mg/kg; IA is Inactive. The data set is classed as functional, organism-based. Also on record: dose 10 mg/kg. As to conditions: Cercopithecidae.
Data set [7] relates to Monkey. The data set is described as follows: Evaluated for single dose suppression tests in monkeys at 5 mg/kg; Not Effective (activity in relation to morphine). The conditions noted are these: Cercopithecidae. The data set is classed as functional, organism-based. Also on record: dose 5 mg/kg.
The species named for data set [8] is Mus musculus. The data set is described as follows: Evaluated for analgesic activity in mice using writhing test. The data set is classed as functional.
The test system of data set [9] is Monkey. Kind of data set: Evaluated for activity in inverted screen assay. The data set is classed as functional. The conditions noted are these: Cercopithecidae.
Data set [10] concerns Monkey. The data set is described as follows: Evaluated for single dose suppression tests in monkeys at 2 mg/kg; Not Effective (activity in relation to morphine). The data set is classed as functional, organism-based. Also on record: dose 2 mg/kg. As to conditions: Cercopithecidae.
The subject of data set [11] is Monkey. Kind of data set: Evaluated for single dose suppression tests in monkeys at 10 mg/kg; Not Effective (activity in relation to morphine). The data set is classed as functional, organism-based. Also on record: dose 10 mg/kg. As to conditions: Cercopithecidae.

Each structure is given as a SMILES string. The source made the active and inactive calls. The rule behind the calls is not given here. Some results are limits rather than exact numbers.

In the data set filed under Mus musculus [1], `CN1CC[C@]23c4c5ccc(O)c4O[C@H]2[C@@H](O)C=C[C@H]3[C@H]1C5` [MORPHINE] showed an ED50 of 0.8 mg/kg.

As to `CCCCCN1CCC2(CC1)c1cc(O)ccc1C(C)(CC)OC2CC` (configuration not stated), the ED50 in the data set listed under Mus musculus [2] and in the data set listed under Mus musculus [3] was over 30 mg/kg each time. The same compound had a Ki at Opioid receptor of 5 µM.

Consider `CCC1OC(C)(C)c2ccc(O)cc2C12CCN(C)CC2` (configuration not stated), for which the median effective dose (ED50) in the data set filed under Mus musculus [2] and in the data set listed under Mus musculus [3] was over 30 mg/kg in each case. The Ki at Opioid receptor came to 10 µM.

`CCCCCN1CCC2(CC1)c1cc(O)ccc1C(C)(C)OC2CC` (configuration not stated): the ED50 entry with Monkey [4] and in the data set on Monkey [6] was “inactive” each time. In addition, the ED50 in the data set filed under Mus musculus [2] is over 30 mg/kg; in the data set listed under Mus musculus [8], 4.2 mg/kg; in the data set with Monkey [9], 38 mg/kg; in the data set filed under Mus musculus [3] it was over 30 mg/kg. For the same compound, the 50% lethal dose (LD50) in data set [5] was determined as 80 mg/kg. For the same compound, the result in the data set on Monkey [7], in the data set on Monkey [10] and with Monkey [11] was inactive. On Opioid receptor, this compound had a Ki of 2 µM.

Consider `C=CCN1CCC2(CC1)c1cc(O)ccc1C(C)(C)OC2CC` (configuration not stated), for which the 50% effective dose (ED50) in the data set filed under Mus musculus [2] and in the data set listed under Mus musculus [3] was over 30 mg/kg each time. The compound also returned an inhibition constant Ki on Opioid receptor of 5 µM.

Compound `CCC(=O)C1(c2cccc(O)c2)CCN(C)CC1` [KETOBEMIDONE] came in with an ED50 in the data set filed under Mus musculus [2] of 0.8 mg/kg.
